Laboratory results taken from article PMC11480511 (Scientific Reports, 2024).
“And” between values parts separate entries of the source, which are not always exact repeats. Equal values may be shown once.

Experiments:
topoisomerase Iα = biological target: T1, topoisomerase Iα (Homo sapiens, UniProt P11387); assay: Topoisomerase I inhibition, human DNA topoisomerase Elisa kit; type: biochemical; details: ± SEM
T1 construct: purchased
T1 sequence (P11387 1-765): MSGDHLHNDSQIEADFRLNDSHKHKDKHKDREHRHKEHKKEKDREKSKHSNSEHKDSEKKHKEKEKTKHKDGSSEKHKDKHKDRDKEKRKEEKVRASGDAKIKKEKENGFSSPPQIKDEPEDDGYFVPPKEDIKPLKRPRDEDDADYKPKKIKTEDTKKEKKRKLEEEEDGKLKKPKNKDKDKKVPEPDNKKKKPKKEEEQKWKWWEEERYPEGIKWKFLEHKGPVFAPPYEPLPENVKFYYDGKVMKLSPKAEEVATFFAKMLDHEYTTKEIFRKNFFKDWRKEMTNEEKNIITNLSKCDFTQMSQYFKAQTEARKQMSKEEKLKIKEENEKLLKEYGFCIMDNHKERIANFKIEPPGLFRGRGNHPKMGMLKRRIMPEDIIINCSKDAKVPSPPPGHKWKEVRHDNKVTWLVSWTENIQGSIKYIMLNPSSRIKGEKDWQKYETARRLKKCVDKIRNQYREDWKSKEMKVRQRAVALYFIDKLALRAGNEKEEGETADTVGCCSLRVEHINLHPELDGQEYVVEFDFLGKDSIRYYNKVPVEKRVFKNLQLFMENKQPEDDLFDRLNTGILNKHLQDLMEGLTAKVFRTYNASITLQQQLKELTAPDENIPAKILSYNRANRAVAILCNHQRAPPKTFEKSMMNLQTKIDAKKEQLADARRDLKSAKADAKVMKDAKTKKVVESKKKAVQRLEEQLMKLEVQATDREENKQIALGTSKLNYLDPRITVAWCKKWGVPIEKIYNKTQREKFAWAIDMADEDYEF
Procedure: Two folds of serial dilution was accomplished after standards and the tested compounds were dissolved in sample diluent. Horseradish peroxidase (HRP-avidin) and biotin-conjugated antibody were diluted 10 times each. Each well received 100 µL of each concentration of the standard or test chemicals, which were then added and incubated at 37 °C for 60 min. […] The microtiter plate was rinsed three times and given room to aspirate. After that, the plate was incubated at 37 °C for 60 min with 100 µL of HRP-avidin solution added to each well. After that, the plate was aspirated and cleaned 5 times. Each well received 90 µL of TMB substrate, and the plate was incubated for 30 min. at 37 °C in a light-protected environment. Finally, stop solution (50 µL) was loaded, and within 5 min, the absorbance at 450 nm was measured spectrophotometrically.
Topoisomerase enzyme assay
Topoisomerase I and II inhibitory activity […]
topoisomerase IIβ inhibitory activity utilizing the human DNA topoisomerase Elisa kit.
Standards and the tested compound were dissolved in sample diluent and 2 folds serial dilution was achieved. Biotin-conjugated antibody and avidin conjugated Horseradish Peroxidase (HRP-avidin) were diluted to 10 folds. 100 μL of each concentration of standard or test compound were added to each well. Incubate at 37 °C for 1 h. The liquid in each well was removed. 10 0 μL of Biotin-conjugated antibody solution was added to each well followed by incubation for 1 h at 37 °C. The microtiter plate was allowed to aspirate and washed 3 times. 100 μL of avidin conjugated Horseradish Peroxidase (HRP -avidin) solution was added to each well and the plate was incubated for 1 h at 37 °C. The plate was aspirated and washed 5 times. 90 μL of TMB substrate were added to each well and the plate was incubated for 30 min at 37 °C and protected from light. 50 μL stop so lution was added. The absorbance was measured spectrophotometrically within 5 min at 450 nm .

[1] = system: melanoma LOX IMVI cell line; assay: Cell cycle analysis, propidium iodide flow cytometry; type: cell-based, human
Procedure: The effect of compound 3i on cell cycle progression of LOX IMVI cell line was evaluated using Propidium Iodide Flow Cytometry Kit to measure the DNA content according to the reported protocols. The LOX IMVI cells used in this work were obtained from the American Type Culture Collection. Cells were cultured in DMEM (Invitrogen/Life Technologies) supplemented with 10% FBS (Hyclone), 10 µg/ml insulin (Sigma), and 1% penicillin-streptomycin. The remaining chemicals and reagents were all from Sigma or Invitrogen. Growth media was removed, cells washed with warm PBS and aspirated. Adhered cells were detached from media by addition of 5 ml 10% trypsin/EDTA and incubated 2 min in the incubator. The suspended cells harvested, aspirated to a falcon tube, centrifuged at 2000 rpm for 5 min. Cell count performed after suspending the cells into a fresh media and stained with trypan blue, counted and used for preparation of the appropriate number of cells.

PARP-1 = assay: Western blot of protein expression in LOX IMVI cells; type: cell-based, human; details: control = 1
Procedure: (§1) To evaluate the expression level of the apoptosis modulatory markers Bax, caspase 3 and PARP-1, western blot was performed as formerly described. Three different groups of LOX IMVI cells were permitted to grow to reach 70–80% confluence in […] flasks. The first group of LOX IMVI cells was treated with compound 3i. […] The media was taken out after 48 h, and cells underwent three rounds of ice-cold PBS washing. RIPA lysis buffer [consisting of Tris-HCl pH 7.6 (25 mM), NaCl (150 mM), EDTA (5 mM), NP-40 or Triton X-100 (1%), sodium deoxycholate (1%), SDS1 (1%)] with the proper phosphatase and a protease inhibitor was used to create the whole-cell lysate for 30 min. After centrifuging the mixture at 12,000 rpm for 20 min and sonicating it for five minutes, the supernatant was collected, split into aliquots, and kept at -80 °C. The Biuret method was used to determine protein content[27],[28]. Proteins in each matched cell lysate were denatured in 2 Laemmli buffer containing 5% β--mercaptoethanol at 95 °C for 5 min. For SDS-PAGE electrophoresis, 20 µg of protein per lane were loaded at 100 volts through a 6% stacking gel, then at 125 volts through a 10% resolving gel for around 2 h, and then transferred to a PVDF membrane using a semidry transfer apparatus (made by Cleaver Scientific) for 25 min. The PVDF membrane was first incubated for one hour at 4 °C in TBS buffer containing 0.1% Tween (TBST) and 5% fat-free milk, then overnight at 4 °C with monoclonal anti-Bax, anti-PARP-1, and anti-caspase-3 as primary antibodies (Cell Signalling Technology) at a dilution of 1:500. Membranes were first treated overnight, then three times washed in TBST buffer, then incubated at room temperature for 60 min with the corresponding HRP (horse radish peroxidase)-linked secondary antibodies (Dako). Then the substrate for the chemiluminescent Western ECL (Perkin Elmer, Waltham, MA) was added to the blot as described by the manufacturer by incubating the membranes with equal volumes of ECL solution A and ECL solution B for 1 min.

Bax = assay: as above; type: cell-based, human; details: control = 1
Procedure: as §1

active caspase-3 = assay: as above; type: cell-based, human; details: control = 1
Procedure: as §1

[2] = LOX IMVI treated at IC50 concentration

## O=C(O)c1cn(C2CC2)c2cc(N3CCN(C(=O)CCCN4C(=O)SC(=Cc5ccccc5)C4=O)CC3)c(F)cc2c1=O [3a, 7-[4-[4-[5-benzylidene-2,4-dioxo-thiazolidin-3-yl]butanoyl]piperazin-1-yl]-1-cyclopropyl-6-fluoro-4-oxo-quinoline-3-carboxylic acid]
Topoisomerase Iα
  IC50: 14.5 ± 0.79 µM

## O=C(O)c1cn(C2CC2)c2cc(N3CCN(C(=O)CCCN4C(=O)SC(=Cc5cccc6ccccc56)C4=O)CC3)c(F)cc2c1=O [3j, 1-cyclopropyl-6-fluoro-7-[4-[4-[5-(1-naphthylmethylene)-2,4-dioxo-thiazolidin-3-yl]butanoyl]piperazin-1-yl]-4-oxo-quinoline-3-carboxylic acid]
Topoisomerase Iα
  IC50: 23.5 ± 1.28 µM

## O=C(O)c1cn(C2CC2)c2cc(N3CCN(C(=O)CCCN4C(=O)CSC4=O)CC3)c(F)cc2c1=O [3 L, 1-Cyclopropyl-7-(4-(4-(2,4-dioxothiazolidin-3-yl)butanoyl)piperazin-1-yl)-6-fluoro-4-oxo-1,4-dihydroquinoline-3-carboxylic acid]
Topoisomerase Iα
  IC50: 18.8 ± 1.02 µM

## O=C(O)c1cn(C2CC2)c2cc(N3CCN(C(=O)CCCN4C(=O)S/C(=C\c5ccc([N+](=O)[O-])cc5)C4=O)CC3)c(F)cc2c1=O [3k]
Topoisomerase Iα
  IC50: 36.6 ± 1.99 µM

## O=C(O)c1cn(C2CC2)c2cc(N3CCN(C(=O)CCCN4C(=O)S/C(=C\c5ccc(F)cc5)C4=O)CC3)c(F)cc2c1=O [3i]
[1]; [2]
  %G0-G1 DNA content: 45.53%
  %G2/M DNA content: 9.41%
  %Pre-G1 DNA content: 38.51%
  %S DNA content: 45.06%
[1]; LOX IMVI, versus control
  increase of percentage of cells at pre-G1: 20 folds
PARP-1
  PARP-1 OD: 0.87
Bax
  Bax OD: 4.13
Active caspase-3
  Caspace-3 Optical density (OD): 3.14
Topoisomerase Iα
  IC50: 4.8 µM and 4.77 µM
